Measurements from US5629309A, “2-substituted indane-2-mercaptoacetylamide disulfide derivatives useful as inhibitors of enkephalinase and ACE” (Merrell Pharmaceuticals Inc., priority 1995, dated 1997).

Target: T1, ACE, rat kidney preparations (Rattus norvegicus, UniProt P47820)
T1 construct: either compound- or vehicle-dosed rat kidney preparations; from tissue; host or cells: kidney of male Sprague-Dawley rats
T1 sequence (P47820 36-1313): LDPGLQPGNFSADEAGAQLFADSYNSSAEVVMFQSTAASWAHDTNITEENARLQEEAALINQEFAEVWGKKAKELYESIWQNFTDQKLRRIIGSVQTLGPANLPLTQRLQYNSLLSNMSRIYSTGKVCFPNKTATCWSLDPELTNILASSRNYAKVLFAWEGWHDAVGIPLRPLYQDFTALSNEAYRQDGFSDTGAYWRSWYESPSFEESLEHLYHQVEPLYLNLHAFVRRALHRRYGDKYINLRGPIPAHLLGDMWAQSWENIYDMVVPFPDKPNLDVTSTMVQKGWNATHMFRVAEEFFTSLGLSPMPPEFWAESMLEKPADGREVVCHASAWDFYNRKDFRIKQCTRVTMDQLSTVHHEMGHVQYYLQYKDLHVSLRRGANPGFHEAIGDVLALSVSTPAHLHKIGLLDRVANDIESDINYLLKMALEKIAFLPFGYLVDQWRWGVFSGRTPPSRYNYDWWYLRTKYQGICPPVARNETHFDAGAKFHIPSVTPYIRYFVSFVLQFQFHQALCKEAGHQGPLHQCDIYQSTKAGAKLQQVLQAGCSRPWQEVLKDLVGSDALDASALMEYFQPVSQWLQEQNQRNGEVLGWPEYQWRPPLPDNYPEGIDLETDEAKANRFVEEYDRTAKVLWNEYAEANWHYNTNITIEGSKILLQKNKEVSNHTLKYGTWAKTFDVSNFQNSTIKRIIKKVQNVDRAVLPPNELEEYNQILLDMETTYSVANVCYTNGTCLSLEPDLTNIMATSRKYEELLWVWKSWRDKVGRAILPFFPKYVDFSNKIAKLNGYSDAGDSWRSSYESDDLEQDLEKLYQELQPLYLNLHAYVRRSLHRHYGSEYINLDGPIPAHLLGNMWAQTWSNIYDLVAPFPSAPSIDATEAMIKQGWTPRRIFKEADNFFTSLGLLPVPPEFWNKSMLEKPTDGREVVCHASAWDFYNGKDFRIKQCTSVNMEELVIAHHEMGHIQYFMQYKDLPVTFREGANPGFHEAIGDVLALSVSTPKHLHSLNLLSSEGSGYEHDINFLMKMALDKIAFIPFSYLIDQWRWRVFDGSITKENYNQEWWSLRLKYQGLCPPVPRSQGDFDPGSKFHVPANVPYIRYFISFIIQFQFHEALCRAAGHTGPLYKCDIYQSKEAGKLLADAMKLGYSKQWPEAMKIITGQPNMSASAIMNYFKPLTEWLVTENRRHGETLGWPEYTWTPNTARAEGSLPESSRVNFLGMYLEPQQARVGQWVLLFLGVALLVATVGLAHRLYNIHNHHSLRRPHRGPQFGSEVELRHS
Experiment: Radiometric ACE assay with tritiated hippuryl-glycyl-glycine, rat kidney preparations
Format: biochemical
Details: 1 μM enalaprilat; compound- or vehicle-dosed rat kidney preparations

- inhibition of radioactive product formation: Complete inhibition
Compound: C[C@H](N[C@@H](CCc1ccccc1)C(=O)O)C(=O)N1CCC[C@H]1C(=O)O [enalaprilat]
